Test results as given in patent US20240360107A1, “AN EIF4A INHIBITOR WITH A NOVEL MECHANISM OF ACTION” (ARIZONA BOARD OF REGENTS ON BEHALF OF THE UNIVERSITY OF …, priority 2021, published 2024).
Entries after “also recorded” stand apart in the source; their conditions may differ.

How the values were obtained:
[1] = molecular target: T1, eIF4A (Homo sapiens, UniProt P60842); test: FAM-RNA fluorescence polarization assay; format: binding; set-up: 6xHis with TEV protease site (N, cleaved yes); made in house; host or cells: E. coli BL21-CodonPlus; conditions: FAM-A(CAA)5 RNA; for IC50: 2 μM eIF4A, read-out: IC50, FAM-RNA FP assay
Experimental: Next, an FP assay was performed with a fluorescent, eIF4A-binding RNA oligo (FAM-A(CAA)5) as the fluorophore. […] This same assay was used to investigate if changing the identity of the RNA fluorophore affected the ability of compound 28 to compete the RNA off eIF4A. […] This is evidence that compound 28 inhibits the RNA-eIF4A interaction by binding eIF4A and not the RNA.
FAM-RNA fluorescence polarization assay. Oligos were purchased from Integrated DNA Technologies using RNase free preparations. Recombinant eIF4A (2 μM) was incubated with 25 nM FAM-labelled RNA for 30 min in FP Buffer (15 mM HEPES-NaOH (pH 8), 100 mM NaCl, 1 mM MgCl2, 15% glycerol, 2 mM DTT, 2 mM AMPPNP) at 22° C. in low-volume black 384 well plates (Greiner). eIF4A was incubated with compound for 20 min prior to the addition of FAM-RNA. Plate was incubated for another 30 min before fluorescence polarization was read at 485:535 nm (Ex:Em) on a SpectraMax iD5 plate reader (Molecular Devices. IC50 values were calculated using GraphPad Prism v6.0.

[2] = molecular target: T1, eIF4A; test: RNA-stimulated malachite green ATPase assay; format: biochemical; set-up: 6xHis with TEV protease site (N, cleaved yes); made in house; host or cells: E. coli BL21-CodonPlus; conditions: for IC50: 750 nM eIF4A, 250 μM ATP, 0.25 mg/mL Yeast RNA, 4 h at 37° C.
Experimental: Human eIF4A protein was produced recombinantly and a greater than 100,000-compound screen for inhibitors was completed using a malachite green ATPase assay (FIG. 11A). […] A stable mixture of yeast RNAs was added in an effort to improve this system and create a more biologically relevant eIF4A assay. eIF4A ATPase activity was accelerated without a statistically significant increase in the background signal in the presence of this RNA (FIG. 11B), and the new conditions gave excellent statistical parameters in a 384-well plate format (FIG. 11C).
(§1) ATPase assay. Recombinant WT or mutant eIF4A was added to a clear bottom 384 well plate (Greiner) in ATPase buffer (20 mM Tris pH 7.4, 80 mM KCl, 2.5 mM MgCl2, 1 mM DTT, 1% glycerol). Compounds were added and the plate was incubated at 37° C. for 20 min. ATP/RNA solution was added to afford a 20 μL per well reaction volume with 750 nM eIF4A, 250 μM ATP, and 0.25 mg/mL Yeast RNA (Sigma) for the initial screen and dose responses, and varying concentrations of ATP and RNA for the kinetic assays. The plate was incubated for 4 h at 37° C. for the initial screen and dose responses, and at seven time points (1 hour-7 hours) for kinetic assays. 0.04% v/v (final concentration) Tween-20 was added to a Malachite Green solution, and the Malachite Green (40 μL per well) was added. The solution was incubated for 5 minutes at room temperature and Absorbance at 660 nm was read on a SpectraMax iD5 plate reader (Molecular Devices).

[3] = molecular target: T1, eIF4A; test: MANT-ATP fluorescence polarization assay; format: binding; set-up: 6xHis with TEV protease site (N, cleaved yes); made in house; host or cells: E. coli BL21-CodonPlus; conditions: compound 200 μM or ADP 1 mM; MANT-ATP 100 nM
Experimental: Additional biochemical testing was performed on compound 28 to investigate its mechanism of eIF4A inhibition. Initially, kinetics experiments were repeated with compound 28, and the results for compound 28 matched those of compound 1 (FIG. 5D, 4A). Upon addition of compound 28, Km and Vmax of eIF4A decreased with respect to ATP. With respect to RNA, eIF4A Km […] and Vmax remained constant. […] Fluorescence polarization (FP) assays were utilized to confirm this mechanism of inhibition by testing the ability of compound 28 to compete fluorescent substrates off eIF4A. First, an FP assay was performed with MANT-ATP, a fluorescent, non-hydrolysable ATP analog, as the substrate.
MANT-ATP fluorescence polarization assay. Recombinant eIF4A (15 μM) was added to a low-volume black 384 well plate (Greiner). Yeast RNA (0.25 mg/mL) was added along with compound (200 μM) or ADP (1 mM) and the plate was incubated for 20 min. MANT-ATP was added (100 nM) and the plate was incubated for 30 min before fluorescence polarization was read at 355 nm:448 nm (Ex:Em) on a SpectraMax iD5 plate reader (Molecular Devices).

[4] = molecular target: T2, eIF4A T158A mutant (Homo sapiens, UniProt P60842, T158A); test: malachite green ATPase assay, eIF4A mutant; format: biochemical
T2 construct: 6xHis with TEV protease site (N, cleaved yes); made in house; host or cells: E. coli BL21-CodonPlus
Experimental: (§2) Furthermore, T158 is predicted to form a hydrogen bond to the […] of the 6-nitro quinoline substitution of compound 28. The ability of the 6-nitro group to form two strong interactions with the binding pocket of eIF4A is the most likely explanation for why this substitution afforded 28 such a large gain in potency for compound 28 compared to other analogs in the inhibitor series. Mutagenesis and recombinant production of mutant eIF4A protein was performed to confirm the docking pose and predicted interactions between compound 28 and its eIF4A binding pocket (FIG. 6D).
as §1

[5] = molecular target: T3, eIF4A R110K mutant (Homo sapiens, UniProt P60842, R110K); test: malachite green ATPase assay, eIF4A mutant; format: biochemical
T3 construct: 6xHis with TEV protease site (N, cleaved yes); made in house; host or cells: E. coli BL21-CodonPlus
Experimental: as §2, §1

[6] = molecular target: T4, eIF4A R110E mutant (Homo sapiens, UniProt P60842, R110E); test: malachite green ATPase assay, eIF4A mutant; format: biochemical
T4 construct: 6xHis with TEV protease site (N, cleaved yes); made in house; host or cells: E. coli BL21-CodonPlus
Experimental: as §2, §1

[7] = molecular target: T5, eIF4A R110L mutant (Homo sapiens, UniProt P60842, R110L); test: malachite green ATPase assay, eIF4A mutant; format: biochemical
T5 construct: 6xHis with TEV protease site (N, cleaved yes); made in house; host or cells: E. coli BL21-CodonPlus
Experimental: as §2, §1

[8] = molecular target: T6, eIF4A T158V mutant (Homo sapiens, UniProt P60842, T158V); test: malachite green ATPase assay, eIF4A mutant; format: biochemical
T6 construct: 6xHis with TEV protease site (N, cleaved yes); made in house; host or cells: E. coli BL21-CodonPlus
Experimental: as §2, §1

[9] = molecular target: T7, eIF4A R110M mutant (Homo sapiens, UniProt P60842, R110M); test: malachite green ATPase assay, eIF4A mutant; format: biochemical
T7 construct: 6xHis with TEV protease site (N, cleaved yes); made in house; host or cells: E. coli BL21-CodonPlus
Experimental: as §2, §1

T1 sequence (P60842 whole entry): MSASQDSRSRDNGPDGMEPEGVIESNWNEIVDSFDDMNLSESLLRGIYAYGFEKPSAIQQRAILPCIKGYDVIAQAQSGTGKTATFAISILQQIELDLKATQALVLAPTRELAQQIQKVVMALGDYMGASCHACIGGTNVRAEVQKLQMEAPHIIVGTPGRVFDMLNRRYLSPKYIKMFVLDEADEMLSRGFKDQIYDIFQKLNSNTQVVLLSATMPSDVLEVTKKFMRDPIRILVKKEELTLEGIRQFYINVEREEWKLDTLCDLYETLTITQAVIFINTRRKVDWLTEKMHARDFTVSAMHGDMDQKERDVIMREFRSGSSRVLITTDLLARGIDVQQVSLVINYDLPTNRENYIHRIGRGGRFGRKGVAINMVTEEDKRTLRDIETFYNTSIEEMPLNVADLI
T5 sequence (P60842 whole entry R110L): as the sequence (P60842 whole entry) above, with R110L counted along it
T3 sequence (P60842 whole entry R110K): as the sequence (P60842 whole entry) above, with R110K counted along it
T4 sequence (P60842 whole entry R110E): as the sequence (P60842 whole entry) above, with R110E counted along it
T7 sequence (P60842 whole entry R110M): as the sequence (P60842 whole entry) above, with R110M counted along it
T6 sequence (P60842 whole entry T158V): as the sequence (P60842 whole entry) above, with T158V counted along it
T2 sequence (P60842 whole entry T158A): as the sequence (P60842 whole entry) above, with T158A counted along it

## CCCCc1ccc(-c2ccc(-c3cc(C(=O)O)c4cc(Br)ccc4n3)o2)cc1 [Compound 1, 6-bromo-2-(5-(4-butylphenyl)furan-2-yl)quinoline-4-carboxylic acid]
[1]
  competition of fluorescent RNA off eIF4A: able to compete the fluorescent RNA off of eIF4A
  IC50: 161 ± 9.8 µM
[2]
  IC50: 26.6 ± 2.46 µM

## CCCCc1ccc(-c2ccc(-c3cc(C(=O)O)c4cc([N+](=O)[O-])ccc4n3)o2)cc1 [Compound 28, 2-(5-(4-butylphenyl)furan-2-yl)-6-nitroquinoline-4-carboxylic acid]
[3]
  competition of MANT-ATP off eIF4A: not an ATP-competitive inhibitor
[1]
  competition of fluorescent RNA off eIF4A: able to compete the fluorescent RNA off of eIF4A; also recorded: about three-fold more potent than 1
  IC50: 58.3 ± 2.5 µM
[4]
  potency against eIF4A mutant in ATPase assay: lost all potency
[5]
  potency against eIF4A mutant in ATPase assay: remained moderately potent
[6]
  potency against eIF4A mutant in ATPase assay: lost all potency
[7]
  potency against eIF4A mutant in ATPase assay: lost all potency
[8]
  potency against eIF4A mutant in ATPase assay: lost all potency
[9]
  potency against eIF4A mutant in ATPase assay: lost all potency
[2]
  IC50: 8.6 ± 0.944 µM
[2]; comparison within the series
  potency in the eIF4A ATPase assay (in words): most potent inhibitor of eIF4A ATPase activity; also recorded: over two-fold more potent than any other molecule previously produced in the series
